Experiments:
[1] = Solubility and stability in simulated gastric fluid (SGF); type: in vitro ADME; conditions: pH 1.2, 37 °C, n = 2
Experimental: SGF and SIF were prepared as per USP method. Briefly, SGF was prepared by adding 2 g of sodium chloride and 3.2 g of pepsin with water and pH was adjusted to 1.2 ± 0.1 using hydrochloric acid (7 mL) and volume made up to 1 L. SIF was prepared by dissolving 6.8 g monobasic potassium phosphate and 10 g pancreatin in Milli-Q water (Millipore, Billerica, MA, USA). pH was adjusted to 6.8 ± 0.1 with sodium hydroxide solution and volume was made upto 1 L. Reactions were initiated by spiking DMSO stock solutions of GE phenolics 10 μL into 1990 μL of SGF and SIF incubated at 37 °C for 10 min. Samples (200 μL) were withdrawn at 0, 15, 30, and 60 min for SGF and at 0, 30, 60, and 120 min for SIF and quenched with 200 μL acetonitrile containing internal standard.

[2] = Mouse pharmacokinetic study of oral GE with and without ketoconazole, plasma with and without β-glucuronidase treatment; type: in vivo, male mice (C57BL6J); conditions: for Concentration Ratio (Total/Free) of GE Phenolics: GE administered group; for Concentration Ratio (Total/Free) of GE Phenolics / concentration at 0 h / concentration at 0.087 h / concentration at 0.167 h / concentration at 0.25 h / concentration at 0.5 h / concentration at 1 h / concentration at 2 h / concentration at 3 h / concentration at 4 h / concentration at 6 h / concentration at 8 h / concentration at 12 h: mouse plasma; for AUC(0-t) / Cmax / Tmax / concentration at 0 h / concentration at 0.087 h / concentration at 0.167 h / concentration at 0.25 h / concentration at 0.5 h / concentration at 1 h / concentration at 2 h / concentration at 3 h / concentration at 4 h / concentration at 6 h / concentration at 8 h / concentration at 12 h: male, C57BL6J; for AUC(0-t) / Cmax / Tmax: mouse, plasma, po, 250 mg/kg
Experimental: A solution formulation of GE was prepared by using 5% ethanol, 5% Tween 80, 40% polyethylene glycol, and 50% corn oil. The dose volume was 10 mL/kg and the dose administered was 250 mg/kg GE.
Pharmacokinetic study in male mice (C57BL6J, Harlan Laboratories, Indianapolis, IN, USA) was run with 36 animals in each group at a GE dose of 250 mg/kg with a dose volume of 10 mL/kg. One group was given GE alone and in the second group GE was co-administered with KTZ (50 mg/kg). A terminal sampling design was used to collect blood samples at 0 (pre-dose), 0.08, 0.16, 0.25, 0.5, 1, 2, 3, 4, 6, 8, and 12 h. At each time, 1 mL of blood was collected in ethylenediaminetetraacetic acid di-potassium salt (K2EDTA) tubes (BD Biosciences, Franklin Lakes, NJ, USA). Plasma was separated by centrifugation of samples at 4000 rpm for 10 min and stored below −60 °C till bioanalysis. All experiments were performed with approval from the Institutional Animal Care and Use Committee (IACUC, approval code: A14031). All animals were acclimatized for five days before dosing in the experimental area. Food and water was provided ad libitum throughout the study period. Animals were marked and housed (three per cage, n = 36 per group) in polypropylene cages and maintained in controlled environmental conditions with 12 h light and dark cycles. The temperature and humidity of the room was maintained between 22 ± 3 °C and 30% to 50%, respectively, and approximately 10–12 fresh air change cycles per hour.
To confirm the presence of GE glucuronide conjugates, plasma (100 μL) was treated with βgd (20 μL, 500 units) and incubated at 37 °C for 1 h. Each sample was analyzed twice with and without β-gd treatment. Samples without gde treatment were diluted with 20 μL of buffer. Total (conjugated + free) and free ginger phenolics data were reported following bioanalysis.
All in vitro and in vivo samples were processed by protein precipitation method. An aliquot (100 μL) of the sample was spiked with 200 μL of acetonitrile containing dihydrocapsaicin as internal standard (IS) and vortex mixed for 3 min. The tubes were centrifuged at 12,000 rpm for 10 min and an aliquot of supernatant was transferred into autosampler vials for analysis. The stock solutions of 6G, 8G, 10G, and 6S were prepared in ACN/water (70:30) at 1 mg/mL. A calibration curve (CC) range of 2–2000 ng/mL was employed for the quantification of analytes and IS concentration was 150 ng/mL for each analysis. The CC consisted of blank, blank with IS and seven non-zero calibration standards. The calibration standards were within ±15% of the nominal concentration and lower limit of quantification was within ±20% of nominal. All samples were analyzed using liquid chromatography tandem mass spectrometry (LC-MS/MS) method (Agilent 6410 series, Santa Clara, CA, USA). A positive ionization mode with multiple reaction monitoring (MRM, m/z Q1/Q3) of 6G (m/z 277.1/177.1, retention time (RT) 2.0 min), 8G (m/z 305.1/177.1, RT 4.0 min), 10G (m/z 333.1/177.1, RT 7.7 min), 6S (m/z 277.1/137.1, RT 5.1 min), and IS (m/z 308.2/137.1, RT 3.4 min) was employed. The ion spray voltage was set at 3500 V, ionization temperature was set to 300 °C and drying gas flow rate was 10 L/min. Data acquisition and quantitation were performed using Mass Hunter software (Agilent Technologies, Wilmington, DE, USA). Separation was achieved using HP1100 series LC (Agilent Technologies) with an Agilent Zorbax reversed-phase (SB-C18, 2.1 × 50 mm, 5.0 μm) column. A gradient method was employed to separate the individual GE phenolics using mobile phase A (0.1% formic acid in water) and mobile phase B (Acetonitrile). The gradient elution method with 50% B at 0 min, 90% B at 5 min, held for 2.1 min, back to 50% B at 7.1 min with a flow rate of 0.2 mL/min. An injection volume of 2 μL was used for analysis. […]

[3] = +KTZ +βgd, reference GE group co-administered with KTZ untreated with βgd
[4] = +KTZ +βgd, reference GE group untreated with βgd
[5] = +KTZ −βgd, reference GE group untreated with βgd
[6] = 250 mg/kg GE + 50 mg/kg KTZ oral, +KTZ −βgd
[7] = 250 mg/kg GE oral, 0.087 h, −βgd
[8] = 250 mg/kg GE oral, 0.167 h, −βgd
[9] = 250 mg/kg GE oral, 0.25 h, −βgd
[10] = 250 mg/kg GE with 50 mg/kg ketoconazole oral, 0 h, −βgd
[11] = 250 mg/kg GE with 50 mg/kg ketoconazole oral, 0.087 h, −βgd
[12] = 250 mg/kg GE with 50 mg/kg ketoconazole oral, 0.167 h, −βgd
[13] = 250 mg/kg GE with 50 mg/kg ketoconazole oral, 0.25 h, −βgd
[14] = 250 mg/kg GE with 50 mg/kg ketoconazole oral, 0.5 h, −βgd
[15] = 250 mg/kg GE with 50 mg/kg ketoconazole oral, 1 h, −βgd
[16] = 250 mg/kg GE with 50 mg/kg ketoconazole oral, 2 h, −βgd
[17] = 250 mg/kg GE with 50 mg/kg ketoconazole oral, 3 h, −βgd
[18] = 250 mg/kg GE with 50 mg/kg ketoconazole oral, 4 h, −βgd
[19] = 250 mg/kg GE with 50 mg/kg ketoconazole oral, 6 h, −βgd
[20] = 250 mg/kg GE with 50 mg/kg ketoconazole oral, 8 h, −βgd
[21] = 250 mg/kg GE with 50 mg/kg ketoconazole oral, 12 h, −βgd

Structure (SMILES): CCCCC/C=C/C(=O)CCc1ccc(O)c(OC)c1 [6S, 6-shogaol]
- half-life at 10 µM [1]: > 60 min
- AUClast Ratio [2, 3]: 14
- AUClast Ratio [2, 4]: 110
- AUClast Ratio [2, 5]: 8
- Concentration Ratio (Total/Free) of GE Phenolics ([2]; 0 h): 0
- Concentration Ratio (Total/Free) of GE Phenolics ([2]; 0.087 h): 48
- Concentration Ratio (Total/Free) of GE Phenolics ([2]; 0.167 h): 19
- Concentration Ratio (Total/Free) of GE Phenolics ([2]; 0.25 h): 0
- Concentration Ratio (Total/Free) of GE Phenolics ([2]; 0.5 h): 83
- Concentration Ratio (Total/Free) of GE Phenolics ([2]; 1 h): 1
- Concentration Ratio (Total/Free) of GE Phenolics ([2]; 2 h): 16
- Concentration Ratio (Total/Free) of GE Phenolics ([2]; 3 h): 0
- Concentration Ratio (Total/Free) of GE Phenolics ([2]; 4 h): 0
- Concentration Ratio (Total/Free) of GE Phenolics ([2]; 6 h): 0
- Concentration Ratio (Total/Free) of GE Phenolics ([2]; 8 h): 0
- Concentration Ratio (Total/Free) of GE Phenolics ([2]; 12 h): 0
- AUC(0-t) ([2]; 250 mg/kg GE oral, −βgd): 1.92 ng·h/mL
- Cmax ([2]; 250 mg/kg GE oral, −βgd): 3.88 ng/mL
- Tmax ([2]; 250 mg/kg GE oral, −βgd): 10 min
- AUC(0-t) [2, 6]: 15.1 ng·h/mL
- Cmax [2, 6]: 12.4 ng/mL
- Tmax [2, 6]: 60 min
- concentration at 0 h ([2]; 250 mg/kg GE oral, 0 h, −βgd): 0 ng/mL
- concentration at 0.087 h [2, 7]: 3.17 ± 2.56 ng/mL
- concentration at 0.167 h [2, 8]: 4.04 ± 5.37 ng/mL
- concentration at 0.25 h [2, 9]: 0.39 ± 0.55 ng/mL
- concentration at 0.5 h ([2]; 250 mg/kg GE oral, 0.5 h, −βgd): 1.26 ± 1.78 ng/mL
- concentration at 1 h ([2]; 250 mg/kg GE oral, 1 h, −βgd): 0.67 ± 0.95 ng/mL
- concentration at 2 h ([2]; 250 mg/kg GE oral, 2 h, −βgd): 0.38 ± 0.54 ng/mL
- concentration at 3 h ([2]; 250 mg/kg GE oral, 3 h, −βgd): 0 ng/mL
- concentration at 4 h ([2]; 250 mg/kg GE oral, 4 h, −βgd): 0 ng/mL
- concentration at 6 h ([2]; 250 mg/kg GE oral, 6 h, −βgd): 0 ng/mL
- concentration at 8 h ([2]; 250 mg/kg GE oral, 8 h, −βgd): 0.05 ± 0.08 ng/mL
- concentration at 12 h ([2]; 250 mg/kg GE oral, 12 h, −βgd): 0.37 ± 0.23 ng/mL
- concentration at 0 h [2, 10]: 0 ng/mL
- concentration at 0.087 h [2, 11]: 0.05 ± 0.07 ng/mL
- concentration at 0.167 h [2, 12]: 0.94 ± 1.33 ng/mL
- concentration at 0.25 h [2, 13]: 0 ng/mL
- concentration at 0.5 h [2, 14]: 18600 ng/mL
- concentration at 1 h [2, 15]: 12.5 ± 17.6 ng/mL
- concentration at 2 h [2, 16]: 75900 ng/mL
- concentration at 3 h [2, 17]: 2.33 ± 3.3 ng/mL
- concentration at 4 h [2, 18]: 0 ng/mL
- concentration at 6 h [2, 19]: 0 ng/mL
- concentration at 8 h [2, 20]: 0 ng/mL
- concentration at 12 h [2, 21]: 0 ng/mL

Structure (SMILES): CCCCCCCC(O)CC(=O)CCc1ccc(O)c(OC)c1 (centres unmarked) [8G, 8-gingerol]
- half-life at 10 µM [1]: > 60 min
- AUClast Ratio [2, 3]: 23
- AUClast Ratio [2, 4]: 1330
- AUClast Ratio [2, 5]: 59
- Concentration Ratio (Total/Free) of GE Phenolics ([2]; 0 h): 0
- Concentration Ratio (Total/Free) of GE Phenolics ([2]; 0.087 h): 532
- Concentration Ratio (Total/Free) of GE Phenolics ([2]; 0.167 h): 439
- Concentration Ratio (Total/Free) of GE Phenolics ([2]; 0.25 h): 653
- Concentration Ratio (Total/Free) of GE Phenolics ([2]; 0.5 h): 948
- Concentration Ratio (Total/Free) of GE Phenolics ([2]; 1 h): 16
- Concentration Ratio (Total/Free) of GE Phenolics ([2]; 2 h): 44
- Concentration Ratio (Total/Free) of GE Phenolics ([2]; 3 h): 29
- Concentration Ratio (Total/Free) of GE Phenolics ([2]; 4 h): 14
- Concentration Ratio (Total/Free) of GE Phenolics ([2]; 6 h): 23
- Concentration Ratio (Total/Free) of GE Phenolics ([2]; 8 h): 0
- Concentration Ratio (Total/Free) of GE Phenolics ([2]; 12 h): 0
- AUC(0-t) [2, 6]: 59.1 ng·h/mL
- Cmax [2, 6]: 45.7 ng/mL
- Tmax [2, 6]: 30 min
- concentration at 0 h ([2]; 250 mg/kg GE oral, 0 h, −βgd): 0 ng/mL
- concentration at 0.087 h [2, 7]: 0.58 ± 0.45 ng/mL
- concentration at 0.167 h [2, 8]: 0.2 ± 0.14 ng/mL
- concentration at 0.25 h [2, 9]: 0.11 ± 0.05 ng/mL
- concentration at 0.5 h ([2]; 250 mg/kg GE oral, 0.5 h, −βgd): 0.23 ± 0.08 ng/mL
- concentration at 1 h ([2]; 250 mg/kg GE oral, 1 h, −βgd): 0.42 ± 0.42 ng/mL
- concentration at 2 h ([2]; 250 mg/kg GE oral, 2 h, −βgd): 0.43 ± 0.11 ng/mL
- concentration at 3 h ([2]; 250 mg/kg GE oral, 3 h, −βgd): 0.81 ± 0.66 ng/mL
- concentration at 4 h ([2]; 250 mg/kg GE oral, 4 h, −βgd): 0.51 ± 0.33 ng/mL
- concentration at 6 h ([2]; 250 mg/kg GE oral, 6 h, −βgd): 0.49 ± 0.3 ng/mL
- concentration at 8 h ([2]; 250 mg/kg GE oral, 8 h, −βgd): 0.57 ± 0.23 ng/mL
- concentration at 12 h ([2]; 250 mg/kg GE oral, 12 h, −βgd): 0.1 ± 0.05 ng/mL
- concentration at 0 h [2, 10]: 0 ng/mL
- concentration at 0.087 h [2, 11]: 0.48 ± 0.2 ng/mL
- concentration at 0.167 h [2, 12]: 0.63 ± 0.12 ng/mL
- concentration at 0.25 h [2, 13]: 6.93 ± 9.15 ng/mL
- concentration at 0.5 h [2, 14]: 7560 ng/mL
- concentration at 1 h [2, 15]: 17.9 ± 19.1 ng/mL
- concentration at 2 h [2, 16]: 16300 ng/mL
- concentration at 3 h [2, 17]: 11.7 ± 7.35 ng/mL
- concentration at 4 h [2, 18]: 2.25 ± 1.56 ng/mL
- concentration at 6 h [2, 19]: 3.71 ± 2.18 ng/mL
- concentration at 8 h [2, 20]: 1.17 ± 0.11 ng/mL
- concentration at 12 h [2, 21]: 0.67 ± 0.17 ng/mL

Source: publication PMC6154694, “Absorption, Metabolic Stability, and Pharmacokinetics of Ginger Phytochemicals” (Molecules : A Journal of Synthetic Chemistry and Natural …, 2017)
